Experimental findings from ChEMBL document CHEMBL1143346, “Solid-phase parallel synthesis and SAR of 4-amidofuran-3-one inhibitors of cathepsin S: effect of sulfonamides P3 substituents on potency and selectivity” (Bioorg Med Chem, 2009) are described below.

The target of one assay is T1, Cathepsin K (Homo sapiens, UniProt P43235).
T1 sequence (P43235 whole entry): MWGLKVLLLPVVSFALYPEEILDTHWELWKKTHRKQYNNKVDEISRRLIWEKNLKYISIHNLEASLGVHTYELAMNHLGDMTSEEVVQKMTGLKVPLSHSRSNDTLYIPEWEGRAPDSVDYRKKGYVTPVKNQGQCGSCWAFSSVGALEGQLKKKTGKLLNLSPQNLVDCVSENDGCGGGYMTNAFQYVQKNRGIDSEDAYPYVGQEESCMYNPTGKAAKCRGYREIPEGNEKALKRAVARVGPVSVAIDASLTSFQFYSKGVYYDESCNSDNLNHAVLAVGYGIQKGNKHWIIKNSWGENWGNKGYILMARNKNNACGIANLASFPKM
In words: Inhibition of human recombinant cathepsin K expressed in baculovirus by fluorescence assay.

For a further assay, the target named is Procathepsin L (Homo sapiens, UniProt P07711). In words: Inhibition of human cathepsin L by fluorescence assay.
A further assay has as its target Cathepsin S (Homo sapiens, UniProt P25774). In words: Inhibition of human recombinant cathepsin S expressed in baculovirus by fluorescence assay.

Chain of Procathepsin L (P07711 whole entry): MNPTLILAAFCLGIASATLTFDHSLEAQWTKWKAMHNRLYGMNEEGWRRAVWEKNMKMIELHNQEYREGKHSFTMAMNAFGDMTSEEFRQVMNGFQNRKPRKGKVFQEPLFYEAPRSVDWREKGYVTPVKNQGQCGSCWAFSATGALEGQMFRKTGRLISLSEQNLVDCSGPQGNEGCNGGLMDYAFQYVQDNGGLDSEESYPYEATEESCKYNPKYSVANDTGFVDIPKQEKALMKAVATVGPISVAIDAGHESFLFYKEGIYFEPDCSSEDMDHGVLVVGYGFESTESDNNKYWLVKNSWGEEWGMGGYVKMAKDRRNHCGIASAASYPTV
Chain of Cathepsin S (P25774 whole entry): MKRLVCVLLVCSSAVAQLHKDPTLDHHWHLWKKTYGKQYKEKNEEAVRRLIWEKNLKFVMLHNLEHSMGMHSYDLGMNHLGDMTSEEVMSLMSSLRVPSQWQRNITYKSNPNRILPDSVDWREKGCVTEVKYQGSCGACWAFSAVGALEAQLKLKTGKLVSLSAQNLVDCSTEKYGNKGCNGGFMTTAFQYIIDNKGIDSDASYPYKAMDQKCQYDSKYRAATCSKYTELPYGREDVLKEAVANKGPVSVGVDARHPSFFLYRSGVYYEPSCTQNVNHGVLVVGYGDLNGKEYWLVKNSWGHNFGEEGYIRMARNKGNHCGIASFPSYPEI

What is called Ki is the equilibrium dissociation constant of an inhibitor or competing ligand from its target. For the molecule `CC[C@@H]1OCC(=O)[C@H]1NC(=O)[C@H](CC1(C)CCCC1)NC(=O)c1ccc(NS(=O)(=O)c2cccnc2Cl)cc1`, the Ki at Cathepsin K stood at 0.8 µM; at Procathepsin L it was 23 µM; on Cathepsin S it was 0.0059 µM.

Turning to `CC[C@@H]1OCC(=O)[C@H]1NC(=O)[C@H](CC1(C)CCCC1)NC(=O)c1ccc(NS(=O)(=O)c2ccccc2C#N)cc1`, the Ki at Cathepsin K worked out at 0.82 µM; on Procathepsin L, 8.5 µM; on Cathepsin S, 0.0008 µM.

Consider `CC[C@@H]1OCC(=O)[C@H]1NC(=O)[C@H](CC1(C)CCCC1)NC(=O)c1ccc(NS(=O)(=O)c2ccc(N)cc2)cc1`, for which the Ki on Cathepsin K was found to be 0.95 µM; on Procathepsin L it was 9.1 µM; on Cathepsin S, 0.0013 µM.

Consider `CC[C@@H]1OCC(=O)[C@H]1NC(=O)[C@H](CC1(C)CCCC1)NC(=O)c1ccc(NS(=O)(=O)C2CCCCC2)cc1`, for which the Ki at Cathepsin K is 0.95 µM; on Procathepsin L it was 64 µM; on Cathepsin S, 0.18 µM.

Consider `CC[C@@H]1OCC(=O)[C@H]1NC(=O)[C@H](CC1(C)CCCC1)NC(=O)c1ccc(NS(=O)(=O)CC)cc1`, for which the values for the Ki on Cathepsin K, on Procathepsin L and at Cathepsin S were 0.47 µM, 17 µM and 0.0019 µM, respectively.

Take `CC[C@@H]1OCC(=O)[C@H]1NC(=O)[C@H](CC1(C)CCCC1)NC(=O)c1ccc(NS(=O)(=O)c2ccc(F)cc2)cc1`: the Ki came to 0.37 µM at Cathepsin K, 5.9 µM at Procathepsin L and 0.002 µM on Cathepsin S.

On to `CC[C@@H]1OCC(=O)[C@H]1NC(=O)[C@H](CC1(C)CCCC1)NC(=O)c1ccc(NS(=O)(=O)c2ccccc2)nc1`, for which the Ki on Cathepsin K was found to be 2.2 µM; on Procathepsin L, 31 µM; at Cathepsin S, 0.056 µM.

Regarding `CC[C@@H]1OCC(=O)[C@H]1NC(=O)[C@H](CC1(C)CCCC1)NC(=O)c1ccc(NS(=O)(=O)Cc2ccccc2)cc1`, the Ki at Cathepsin K is 1.7 µM; at Procathepsin L, 15 µM; on Cathepsin S, 0.031 µM.

Consider `CC[C@@H]1OCC(=O)[C@H]1NC(=O)[C@H](CC1(C)CCCC1)NC(=O)c1ccc(NS(=O)(=O)c2cccs2)cc1`, for which the Ki at Cathepsin K is 1 µM; on Procathepsin L it was 13 µM; at Cathepsin S it was 0.0023 µM.

As to `CC[C@@H]1OCC(=O)[C@H]1NC(=O)[C@H](CC1(C)CCCC1)NC(=O)c1ccc(NS(=O)(=O)c2nc(C(C)C)cs2)cc1`, the Ki was 1.7 µM at Cathepsin K, 9.1 µM on Procathepsin L and 0.0057 µM at Cathepsin S.

On to `CC[C@@H]1OCC(=O)[C@H]1NC(=O)[C@H](CC1(C)CCCC1)NC(=O)c1cccc(NS(C)(=O)=O)c1`, for which the values for the Ki on Cathepsin K, on Procathepsin L and at Cathepsin S were 1.5 µM, 2.5 µM and 0.012 µM, respectively.

In the case of `CC[C@@H]1OCC(=O)[C@H]1NC(=O)[C@H](CC1(C)CCCC1)NC(=O)c1ccc(NS(=O)(=O)c2ccccc2)cc1`, the Ki on Cathepsin K came to 0.43 µM; at Procathepsin L it was 11 µM; at Cathepsin S, 0.0008 µM.

As to `CC[C@@H]1OCC(=O)[C@H]1NC(=O)[C@H](CC1(C)CCCC1)NC(=O)c1ccc(NS(=O)(=O)c2sc(C)nc2C)cc1`, the Ki amounted to 1.8 µM at Cathepsin K, 16 µM on Procathepsin L and 0.0007 µM at Cathepsin S.

Regarding `CC[C@@H]1OCC(=O)[C@H]1NC(=O)[C@H](CC1(C)CCCC1)NC(=O)c1ccc(NS(=O)(=O)c2cccc(F)c2)cc1`, the Ki at Cathepsin K turned out to be 0.52 µM; on Procathepsin L, 7.8 µM; on Cathepsin S, 0.0034 µM.

As to `CC[C@@H]1OCC(=O)[C@H]1NC(=O)[C@H](CC1(C)CCCC1)NC(=O)c1ccc(NS(=O)(=O)c2cccc(C#N)c2)cc1`, the inhibitory constant (Ki) at Cathepsin K was determined as 0.73 µM; at Procathepsin L, 6.8 µM; at Cathepsin S, 0.0006 µM.

Consider `CC[C@@H]1OCC(=O)[C@H]1NC(=O)[C@H](CC1(C)CCCC1)NC(=O)c1ccc(NS(C)(=O)=O)cc1C`, for which the values for the Ki at Cathepsin K, at Procathepsin L and at Cathepsin S were 1.9 µM, 23 µM and 0.03 µM, respectively.

Consider `CC[C@@H]1OCC(=O)[C@H]1NC(=O)[C@H](CC1(C)CCCC1)NC(=O)c1ccc(S(=O)(=O)NC)cc1`, for which the Ki was 0.42 µM on Cathepsin K, 27 µM at Procathepsin L and 0.14 µM on Cathepsin S.

Consider `CC[C@@H]1OCC(=O)[C@H]1NC(=O)[C@H](CC1(C)CCCC1)NC(=O)c1ccc(NS(=O)(=O)C(C)C)cc1`, for which the Ki stood at 0.5 µM at Cathepsin K, 15 µM on Procathepsin L and 0.0029 µM on Cathepsin S.

On to `CC[C@@H]1OCC(=O)[C@H]1NC(=O)[C@H](CC1(C)CCCC1)NC(=O)c1ccc(NS(=O)(=O)c2ccccc2)c(Cl)c1`, for which the Ki amounted to 1.6 µM on Cathepsin K, 1.1 µM on Procathepsin L and 0.012 µM on Cathepsin S.

On to `CC[C@@H]1OCC(=O)[C@H]1NC(=O)[C@H](CC1(C)CCCC1)NC(=O)c1ccc(NS(=O)(=O)c2cnccc2C)cc1`, for which the Ki at Cathepsin K stood at 0.26 µM; at Procathepsin L, 8.7 µM; at Cathepsin S, 0.0009 µM.

In the case of `CC[C@@H]1OCC(=O)[C@H]1NC(=O)[C@H](CC1(C)CCCC1)NC(=O)c1ccc(NS(=O)(=O)c2ccccc2)c(C)c1`, the Ki came out at 0.73 µM on Cathepsin K, 2.3 µM at Procathepsin L and 0.004 µM at Cathepsin S.

For `CC[C@@H]1OCC(=O)[C@H]1NC(=O)[C@H](CC1(C)CCCC1)NC(=O)c1ccc(NS(=O)(=O)c2ccccn2)cc1`, the Ki on Cathepsin K was found to be 0.45 µM; at Procathepsin L, 13 µM; at Cathepsin S, 0.0023 µM.

Turning to `CC[C@@H]1OCC(=O)[C@H]1NC(=O)[C@H](CC1(C)CCCC1)NC(=O)c1ccc(NS(=O)(=O)c2ccc(C#N)cc2)cc1`, the Ki was 0.95 µM at Cathepsin K, 7.9 µM on Procathepsin L and 0.0011 µM at Cathepsin S.

Turning to `CC[C@@H]1OCC(=O)[C@H]1NC(=O)[C@H](CC1(C)CCCC1)NC(=O)c1ccc(NS(C)(=O)=O)c(C)c1`, the Ki on Cathepsin K is 0.24 µM; on Procathepsin L, 2 µM; on Cathepsin S it was 0.0049 µM.

`CC[C@@H]1OCC(=O)[C@H]1NC(=O)[C@H](CC1(C)CCCC1)NC(=O)c1ccc(NS(=O)(=O)c2ccccc2F)cc1`: the Ki at Cathepsin K was found to be 0.98 µM; at Procathepsin L it was 11 µM; on Cathepsin S it was 0.0038 µM.

With `CC[C@@H]1OCC(=O)[C@H]1NC(=O)[C@H](CC1(C)CCCC1)NC(=O)c1cccc(S(=O)(=O)NC)c1`, the Ki on Cathepsin K was found to be 23 µM; on Procathepsin L, 15 µM; on Cathepsin S it was 0.19 µM.

For `CC[C@@H]1OCC(=O)[C@H]1NC(=O)[C@H](CC1(C)CCCC1)NC(=O)c1ccc(NS(=O)(=O)c2ccc(OC)cc2)cc1`, the Ki amounted to 0.5 µM on Cathepsin K, 11 µM at Procathepsin L and 0.0033 µM on Cathepsin S.

With `CC[C@@H]1OCC(=O)[C@H]1NC(=O)[C@H](CC1(C)CCCC1)NC(=O)c1ccc(NS(C)(=O)=O)c(OC)c1`, the Ki is 0.56 µM at Cathepsin K, 7.2 µM on Procathepsin L and 0.026 µM at Cathepsin S.

As to `CC[C@@H]1OCC(=O)[C@H]1NC(=O)[C@H](CC1(C)CCCC1)NC(=O)c1ccc(NS(=O)(=O)c2ccccc2C)cc1`, the figures for the Ki at Cathepsin K, at Procathepsin L and at Cathepsin S were 0.55 µM, 8.4 µM and 0.0039 µM, respectively.

For `CC[C@@H]1OCC(=O)[C@H]1NC(=O)[C@H](CC1(C)CCCC1)NC(=O)c1ccc(NS(C)(=O)=O)c(Cl)c1`, the Ki at Cathepsin K stood at 0.84 µM; on Procathepsin L, 0.97 µM; on Cathepsin S it was 0.0056 µM.

With `CC[C@@H]1OCC(=O)[C@H]1NC(=O)[C@H](CC1(C)CCCC1)NC(=O)c1ccc(NS(=O)(=O)C2CC2)cc1`, the Ki on Cathepsin K came to 0.44 µM; at Procathepsin L, 12 µM; at Cathepsin S it was 0.0024 µM.

Consider `CC[C@@H]1OCC(=O)[C@H]1NC(=O)[C@H](CC1(C)CCCC1)NC(=O)c1ccc(NS(C)(=O)=O)c(C(C)=O)c1`, for which the Ki is 0.75 µM on Cathepsin K, 9.5 µM at Procathepsin L and 0.057 µM at Cathepsin S.
